A melting point compilation (Tetko et al.)

| Compound | melting point [°C] |
| --- | --- |
| Cc1ccc(C)c(SCc2cccc(C(=O)O)c2)c1 | 129 to 131 |
| N#Cc1ccc(-c2csc(N)n2)cc1 | 267 to 269 |
| Nc1cccc(OCC(F)(F)F)c1 | 34 to 36 |
| Cc1nc(-c2nnc[nH]2)sc1C(=O)O | 286 to 288 |
| CC(C)NC(=O)N1CCC(C(=O)O)CC1 | 137 to 139 |
| COC(=O)Cc1cc(=O)[nH]c(S)n1 | 185 to 187 |
| O=C(O)c1cccc(=O)n1CCOc1ccccc1Cl | 118 to 120 |
| CCNC(=O)c1cccc(C)c1O | 64 to 66 |
| COc1cc(C=O)ccc1OS(=O)(=O)c1cc(C)ccc1C | 82 to 84 |
| Cn1cncc1C#N | 48 to 50 |
| C=CCNc1ncc(C(=O)O)s1 | 169 to 171 |
| Cc1cc(C(=O)O)nn1-c1ccc(Cl)cc1 | 139 to 141 |
| CNc1ncccn1 | 60 to 62 |
| Cc1cc(/C=C(\C#N)C(=O)O)c(C)n1-c1ccccc1F | 165 to 167 |
| Cc1n[nH]c(C(F)(F)Cl)c1C(=O)O | 260 to 262 |
| O=C(O)CNS(=O)(=O)c1ccc(Cl)c([N+](=O)[O-])c1 | 150 to 152 |
| c1ccc(CC2CCN(Cc3ccccc3)CC2)cc1 | 65 to 67 |
| Cn1c(Cl)c(C=O)c2ccccc21 | 92 to 94 |
| CC(C)Oc1cncc(C(=O)O)c1 | 172 to 174 |
| CC(C)(C)OC(=O)N1CCCc2cccc(O)c21 | 60 to 62 |
| O=C(O)Cn1cccn1 | 139 to 141 |
| COc1ccc(S(=O)(=O)CC(C)C(=O)O)cc1 (stereo unspecified) | 116 to 118 |
| Nc1nnc(-c2cccc(Br)c2)o1 | 209 to 211 |
| CC1CN(C(=O)CCl)CC(C)O1 (stereo unspecified) | 61 to 63 |

| Compound | melting point [°C] |
| --- | --- |
| Nc1cccc(Cn2cnnc2)c1 | 139 to 141 |
| CCOC(=O)CN1C(=O)C(=O)c2ccccc21 | 127 to 129 |
| NCc1nc(-c2ccc(Cl)cc2)cs1 | 105 to 107 |
| Cc1cc(N)nc(N2CCOCC2)n1 | 102 to 104 |
| CN1CCN(c2cc(CN)ccn2)CC1 | 72 to 74 |
| COc1ccc(CCl)cc1Br | 45 to 51 |
| CC(C)(C)c1ccc(C2(N)CCCC2)cc1 | 120 to 122 |
| O=C(O)C1CC1c1ccccc1OC(F)(F)F (stereo unspecified) | 94 to 96 |
| CCn1c(C)cc(C(=O)O)c1C | < 17 |
| O=C1CN(c2ccc(O)cc2)C(=O)N1 | 325 to 327 |
| COc1ccc2c(c1)c(C(=O)O)c(C)n2C1CC1 | 199 to 201 |
| Nc1ccc(-n2ccnn2)cc1 | 137 to 139 |
| COc1ccccc1-c1cnc(CCl)o1 | 86 to 88 |
| O=C(O)CCSCc1nc2sc3c(c2c(=O)[nH]1)CCC3 | 227 to 229 |
| Cc1ccc(S(=O)(=O)NC(C)(C)C)cc1C(=O)O | 180 to 182 |
| O=C(O)c1cn(-c2ccccc2)nc1-c1ccc(Br)cc1 | 262 to 264 |
| Cc1cc(S(=O)(=O)Cl)cc(C(=O)O)c1F | 169 to 171 |
| CC(C)(C)OC(=O)NC(C)(C)c1noc(CCl)n1 | 79 to 81 |
| C1Cc2nnc(C3CCNCC3)n2C1 | 126 to 128 |
| O=C1N[C@H](C(=O)O)CS1 | 166 to 170 |
| O=C(CCl)Nc1cccc(C(=O)O)c1 | 220 to 222 |
| CCOC(=O)C(=O)Nc1ccc(C)cc1 | 64 to 66 |
| Cc1ccnn1-c1cccc(N)c1 | 93 to 95 |
| O=C(O)Cc1ccc([N+](=O)[O-])cc1Br | 164 to 166 |

| Compound | melting point [°C] |
| --- | --- |
| NS(=O)(=O)c1cc([N+](=O)[O-])ccc1Br | 204 to 206 |
| Cc1cc(C)n(CC(=O)O)n1 | 187 to 189 |
| NC(=O)c1ccc(F)c(N)c1 | 137 to 139 |
| C#CCn1nc(C)c(C)c1C | 74 to 76 |
| O=C(NC1CCCCNC1=O)OCC(F)(F)F (stereo unspecified) | 199 to 201 |
| Cc1cc(NCc2ccco2)ncn1 | 95 to 97 |
| Cc1ccc(C)c2[nH]c(C(=O)O)cc12 | 206 to 208 |
| Cc1ccccc1-n1c(S)nc2scc(-c3ccccc3)c2c1=O | 157 to 159 |
| O=C(O)CCC(NC(=O)Cc1ccc2ccccc2c1)C(=O)O (stereo unspecified) | 173 to 175 |
| Nc1oc2ccccc2c(=O)c1C=O | 249 to 251 |
| Cc1nc(Cl)c2c(n1)CCCC2 | 30 to 32 |
| O=C(c1ccc(Cl)cc1)c1ccsc1 | 92 to 94 |
| Cc1ccc(N)cc1S(=O)(=O)NC1CC1 | 131 to 133 |
| O=S1(=O)CCC(Cc2nc3ccccc3[nH]2)C1 (stereo unspecified) | 156 to 158 |
| Cc1nnnn1-c1cccc(N)c1 | 121 to 123 |
| Cc1ccc(/C=C/C(=O)O)c(C)c1 | 182 to 184 |
| COc1ccc(Cl)cc1CC#N | 51 to 55 |
| CS(=O)(=O)c1cccc(C(N)c2ccc(F)cc2)c1 (stereo unspecified) | 88 to 90 |
| CC(=O)Nc1c(C)cccc1C(=O)O | 204 to 206 |
| COC(=O)C(=O)C=C(C)OC | 37 to 39 |
| O=C(O)c1ccc(Cl)c(Cl)c1O | 212 to 214 |
| Cc1ccc(-c2nc(N)sc2CC(=O)O)cc1 | 218 to 222 |
| O=C(O)CC1SC(=Nc2ccccc2)NC1=O (stereo unspecified) | 202 to 204 |
| CCCc1ccc(N2CC(C(=O)O)CC2=O)cc1 (stereo unspecified) | 136 to 138 |

| Compound | melting point [°C] |
| --- | --- |
| ClCc1nnc(-c2cc3c(s2)CCCC3)o1 | 107 to 109 |
| COc1ccc(N)cc1-n1nnnc1C | 130 to 132 |
| O=C(O)C1CCS(=O)(=O)CC1 | 184 to 186 |
| O=C(O)C1CCCN1C(=O)C12CC3CC(CC(C3)C1)C2 (stereo unspecified) | 193 to 195 |
| Oc1[nH]nc2c1CC(c1ccccc1)CC2 (stereo unspecified) | 269 to 271 |
| CC(C)[C@H](C(=O)O)N(C)C | 154 to 156 |
| COCCc1ccc2oc(N)nc2c1 | 159 to 161 |
| CS(=O)(=O)c1snc(O)c1C#N | 235 to 237 |
| CCN(CC)S(=O)(=O)c1ccc(Br)c(C(=O)O)c1 | 141 to 145 |
| CC(C(=O)O)N1CCSCC1 (stereo unspecified) | 199 to 201 |
| NC(=NO)c1ccc(O)cc1Cl | 153 to 155 |
| COC(=O)C(=O)NN | 115 to 117 |
| COC(=O)c1ccc(OCC2CO2)cc1 (stereo unspecified) | 59 to 61 |
| c1ccc2[nH]c(C3CC3)nc2c1 | 232 to 234 |
| Cc1noc(C2CC2)c1C(=O)O | 164 to 166 |
| O=C(O)CN1CC(=O)Oc2ccccc21 | 176 to 178 |
| CC(C)(C)Nc1nccs1 | 83 to 85 |
| OCCn1c(CSc2nnc(-c3ccc4c(c3)OCO4)o2)nc2ccc(Cl)cc21 | 202 to 204 |
| CC(=O)c1nc2ccccc2n1C | 67 to 69 |
| Cc1oc(C(=O)O)cc1COc1ccccc1 | 139 to 141 |
| NC(CC(=O)O)c1ccc(C(F)(F)F)cc1 (stereo unspecified) | 219 to 221 |

Second part, the compound after the results:

| melting point [°C] | Compound |
| --- | --- |
| 146 to 148 | NCc1noc(-c2cccs2)n1 |
| 99 to 101 | CCOC(=O)c1nc(Cl)c2ccccc2n1 |
| 174 to 176 | CS(=O)(=O)NCC(=O)O |
| 176 to 178 | Nc1cc(C(=O)O)ccc1OCC(F)(F)F |
| 251 to 253 | O=C(O)c1ccc(-c2ccc(Cl)cc2)cc1F |
| 57 to 58 | COc1ccnc(Cl)n1 |
| 109 to 111 | CN(C)c1nc(Cl)c(C=O)s1 |
| 44 to 46 | Nc1ccccc1CC(F)(F)F |
| 183 to 185 | COc1ccc(S(=O)(=O)Nc2ccccc2C(=O)O)cc1 |
| 124 to 126 | CNC(=O)c1cc(Oc2cccc(O)c2)ccn1 |
| 133 to 135 | NNC(=O)c1ccc2ccccc2n1 |
| 167 to 169 | N#Cc1ccc(NCC(=O)O)nc1 |
| 128 to 130 | O=C(O)Cc1csc(-c2ccoc2)n1 |
| 275 to 277 | CSc1nc2nc(C)c(CC(=O)O)c(C)n2n1 |
| 39 to 41 | OC1(c2ccccc2)CCC1 |
| 175 to 177 | Cc1cn(CC(=O)O)c2ccccc12 |
| 45 to 47 | N#CC=C(Cl)c1cccc(OC(F)F)c1 |
| 217 to 219 | CC(C)(C)NC(=O)c1ccc(C(=O)O)cc1 |
| 262 to 264 | Cc1cc(C(=O)O)c2c(C)nn(C)c2n1 |
| 49 to 51 | O=C(O)CCc1ccccc1OC(F)(F)F |
| 94 to 96 | CCOC(=O)c1c(CCCO)cnc2c(C#N)cnn12 |
| 79 to 81 | N#CCOc1ccccc1C=O |
| 140 to 142 | BrCc1cc(Br)cc2cccnc12 |
| 169 to 171 | Cc1ccc(C#N)c(N)n1 |
| 120 to 122 | O=C1NC(=O)C2(CCOc3ccccc32)N1 (stereo unspecified) |
| 70 to 72 | Fc1cccc(NC2CCOCC2)c1 |
| 244 to 246 | CCC(NC(=O)c1ccccc1)C(N)=S (stereo unspecified) |

| melting point [°C] | Compound |
| --- | --- |
| 110 to 112 | Nc1cccc(S(=O)(=O)Nc2ccccc2Cl)c1 |
| 151 to 153 | O=C(CC1(C(=O)O)CCCCC1)NC1CC1 |
| 299 to 301 | Cc1cc(C(=O)O)c2c(C)n[nH]c2n1 |
| 224 to 226 | N#Cc1c(S)nc(CCc2ccccc2)c2c1CCCC2 |
| 120 to 122 | CC(=O)N1CCC(C)(C(=O)O)C1 (stereo unspecified) |
| 146 to 148 | CC(C)(C)NC(=O)c1ccccc1C(=O)O |
| 91 to 93 | N#CC(NC(=O)c1ccccc1)C1CC1 (stereo unspecified) |
| 100 to 102 | CN(c1ccc(O)cc1)S(=O)(=O)c1ccccc1F |
| 177 to 179 | N#Cc1ccc(OCC(=O)O)cc1 |
| 145 to 147 | Cc1nnc(-c2ccccc2N)o1 |
| 134 to 136 | Cc1cc(Cl)c2cc(Br)cc(C)c2n1 |
| 146 to 148 | O=C(O)CCn1ccccc1=O |
| 198 to 200 | O=c1[nH]c(-c2cccc(F)c2)cs1 |
| 209 to 211 | COc1ccc(Br)c(-c2nnn[nH]2)c1 |
| 136 to 140 | Nc1ccnn1Cc1cccc2ccccc12 |
| 56 to 58 | O=C1CSCc2ccccc21 |
| 253 to 255 | N#Cc1cc2c([nH]c1=O)CCCCC2 |
| 142 to 144 | COc1ccc2c(c1)CCCC(=O)N2 |
| 163 to 165 | Cc1nnc2c(Cl)cccn12 |
| 109 to 111 | COCc1csc(N)n1 |
| 201 to 203 | Cc1cc(C(=O)O)c2c(C3CC3)noc2n1 |
| 232 to 234 | COc1ccc(NS(=O)(=O)c2cc(N)ccc2N2CCOCC2)cc1 |
| 167 to 169 | Fc1ccccc1-n1cnnc1S |
| 281 to 283 | Cc1ccc(S(=O)(=O)Cc2ccc(C(=O)O)cc2)cc1 |
| 108 to 110 | O=C(O)COc1cccc(Br)c1 |
| 169 to 171 | C#CCNC(=O)Nc1ccc(C(C)=O)cc1 |
